Data on nine molecules can be found in PubChem BioAssay (NCI).

What all share (test): NCI-60 cell line screen, 48 h
For test [1], the system named is NCI-H23 lung.
Test [2] concerns CCRF-CEM leukemia.
Test [3] concerns KM12 colon.
The subject of test [4] is DU-145 prostate.
The test system of test [5] is HL-60(TB) leukemia.
Test [6] has as its system EKVX NSCLC.
The subject of test [7] is HCC-2998 colon.
The test system of test [8] is NCI/ADR-RES ovarian.
For test [9], the system named is U251 CNS.
Test [10] concerns SNB-75 CNS.
Test [11] relates to NCI-H522 lung.
The subject of test [12] is MDA-MB-231 breast.
The test system of test [13] is HOP-92 NSCLC.
The subject of test [14] is NCI-H460 lung.
Test [15] relates to SK-OV-3 ovarian.
Test [16] has as its system SK-MEL-28 melanoma.

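Protocol summary: plate cells (96-well), add compound at 5 concentrations, incubate 48 h, interpolate endpoints linearly. At the GI50, growth is halved. TGI is the concentration that stops growth completely.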

For the molecule `Cc1ccc2nc(-c3ccccc3)cc(=O)n2c1`, the TGI in test [1], in [2], in test [3], in [4], in [5] and in test [6] was above 100 µM each time. In addition, the TGI in [7], in test [8], in [9], in [10], in [11] and in test [12] was above 100 µM throughout. Further, the TGI in [13], in test [14], in [15] and in test [16] was above 100 µM each time.
In the case of `COc1ccc(C2c3cc4c(cc3OC3(OC)COC(=O)C23)OCO4)c(OC)c1` (stereo not given), the TGI is above 100 µM in test [1]; above 46.8 µM in [2]; 40 µM in test [3]; above 100 µM in test [4]; 9.31 µM in test [5]; above 73.1 µM in test [6]. For the same molecule, the TGI in test [7] is above 100 µM; in test [8], 34.5 µM; in [9] it was above 100 µM; in test [10], 45.5 µM; in [11], above 22.5 µM; in test [12] it was 99.5 µM. In addition, the TGI was 97.6 µM in test [13], above 100 µM in test [14], above 86 µM in [15] and above 100 µM in test [16].
Regarding `COc1ccc(S(=O)(=O)n2c3c(c4ccccc42)[C@@H]2[C@@H](CCCN2C(=O)CS(=O)c2ccc(C)cc2)[C@H](Cl)C3)cc1` (stereo not given in full), the TGI in [1], in test [2], in test [3], in [4], in test [5] and in test [6] was above 100 µM in each case. The TGI in test [7], in test [8], in test [9], in [10], in test [11] and in [12] was above 100 µM each time. In addition, the TGI in test [13], in test [14], in test [15] and in [16] was above 100 µM throughout.
With `COc1ccc2oc3c(C)cc4c(OC)nnc(OC)c4c3c2c1`, the TGI in [1], in test [2], in test [3], in test [4], in test [5] and in [6] was above 100 µM each time. Further, the TGI in test [7] was above 100 µM; in [8], above 100 µM; in test [9], 14.8 µM; in test [10], above 100 µM; in test [11], above 100 µM; in [12], above 100 µM. Moreover, the TGI in test [13], in [14], in [15] and in test [16] was above 100 µM throughout.
In the case of `N=c1oc2ccccc2cc1C(=O)NC12CC3CC(CC(C3)C1)C2`, the TGI in test [1] was above 91.6 µM; in test [2], 17.2 µM; in test [3], 52.4 µM; in [4], above 84.3 µM; in test [5] it was 30.7 µM; in test [6], above 82.8 µM. The TGI in test [7] was 28.7 µM; in test [8] it was above 100 µM; in test [9], 43.8 µM; in test [10] it was 71.3 µM; in [11] it was 14.8 µM; in test [12] it was 47.7 µM. The TGI was above 100 µM in [13], 31.4 µM in [14], 53.5 µM in [15] and above 100 µM in test [16].
For the molecule `CCOC(=O)CCC(NC(=O)C(N)Cc1ccc(N(CCCl)CCCl)cc1)C(=O)OCC` (stereo not given), the TGI is 1.68 µM in test [1]; 4.29 µM in test [2]; 3.43 µM in test [3]; 2.34 µM in [4]; 0.586 µM in test [5]; 6.53 µM in [6]. In addition, the TGI in test [7] stood at 2.23 µM; in test [8], 19 µM; in [9] it was 7.41 µM; in test [10], 2.79 µM; in [11], 0.853 µM; in [12] it was 3.94 µM. Moreover, the TGI amounted to 1.59 µM in test [13], 4.09 µM in [14], 5.3 µM in test [15] and 2.18 µM in test [16]. In test [8], the GI50 is 3.52 µM.
Take `CCCCCCc1cc2cc(-c3cn4ccsc4n3)c(=O)oc2cc1O`: the TGI in test [1], in test [2], in test [3], in test [4], in test [5] and in test [6] was above 100 µM in each case. The TGI in test [7] is above 100 µM; in [8], above 100 µM; in [9], above 100 µM; in test [10], above 92.7 µM; in test [11] it was above 100 µM; in [12] it was above 100 µM. Further, the TGI is above 100 µM in test [13], above 100 µM in test [14], above 100 µM in test [15] and above 35.9 µM in test [16].
As for `O=C1NC2(CCN(CCc3ccccc3)CC2)Oc2ccccc21`, the TGI in test [1], in test [2], in test [3], in [4], in [5] and in [6] was above 100 µM in each case. For the same molecule, the TGI in test [7], in test [8], in test [9], in test [10], in test [11] and in test [12] was above 100 µM in each case. Besides, the TGI in test [13] is 69.4 µM; in test [14], above 100 µM; in [15] it was above 100 µM; in [16], above 100 µM.
Take `COCOC1/C=C/CCCCC(=O)C(C)C#CC1` (stereo not given): the TGI came out at 16.3 µM in [1]; 5.81 µM in test [2]; 25.5 µM in [3]; 25.4 µM in [4]; 4.33 µM in test [5]; 23.1 µM in test [6]. The TGI in test [7] came out at 20.2 µM; in test [8], 14.4 µM; in test [9], 28 µM; in [10] it was 26.1 µM; in test [11], 3.37 µM; in test [12], 15.6 µM. Moreover, the TGI in [13] was found to be 8.46 µM; in test [14], 23.9 µM; in test [15], 32.3 µM; in [16], 25.4 µM.
